The structures appear in SMILES notation. pEC50: −log10 of the molar value. Where a SMILES comes first, the peptide text is derived from it. [ ]: non-standard residue; d: D form. αMeF = C[C@](N)(Cc1ccccc1)C(=O)O; αMeK = C[C@](N)(CCCCN)C(=O)O; Aib = CC(C)(N)C(=O)O

For orientation: pEC50 means the EC50 on a negative log10 scale, so that one unit is a factor of ten.

Holding throughout (format): cell-based
Conditions in all cases: n = 2

Test [1] concerns the target T1, hGIP-R (Homo sapiens, UniProt P48546).
T1 construct: expressed in transfected cells
T1 sequence (P48546 22-466): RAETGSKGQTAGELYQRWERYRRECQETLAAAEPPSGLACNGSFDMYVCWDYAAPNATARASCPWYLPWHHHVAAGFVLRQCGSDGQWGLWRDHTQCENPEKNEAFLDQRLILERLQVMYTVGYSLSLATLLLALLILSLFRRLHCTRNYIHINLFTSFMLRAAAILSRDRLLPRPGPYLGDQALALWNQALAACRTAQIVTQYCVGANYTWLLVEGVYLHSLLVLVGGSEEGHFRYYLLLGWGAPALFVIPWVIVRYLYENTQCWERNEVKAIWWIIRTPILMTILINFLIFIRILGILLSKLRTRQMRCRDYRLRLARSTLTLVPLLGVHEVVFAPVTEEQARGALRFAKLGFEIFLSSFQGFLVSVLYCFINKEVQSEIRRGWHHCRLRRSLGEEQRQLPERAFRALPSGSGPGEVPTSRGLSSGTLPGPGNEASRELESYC
The test can be described thus: cAMP functional assay, cells expressing human GIP receptor (primary assay).

In test [2] the target is T2, hGLP-1R (Homo sapiens, UniProt P43220).
T2 construct: expressed in transfected cells
The test can be described thus: cAMP functional assay, cells expressing human GLP-1 receptor (primary assay).

The target of test [3] is T3, hGluc-R (Homo sapiens, UniProt P47871).
T3 construct: expressed in transfected cells
The test can be described thus: cAMP functional assay, cells expressing human glucagon receptor (primary assay). As to the method: The biological activities/receptor potencies of the synthetic GLP-1 peptides described herein are suitably tested for biological activity, e.g., stimulation of one or more cellular receptor responses. Stable cell lines expressing human, mouse, rat, or dog GLP-1 receptor (GLP-1R), glucagon receptor (GCGR) or glucose-dependent insulinotropic peptide (gastric inhibitory polypeptide) receptor (GIPR) are generated in HEK293 cells or CHO cells by standard methods.
cAMP assays were performed using “assay buffer”: Assay Buffer: 0.1% BSA (Sigma #A3059) in HBSS (Sigma #H8264) with 25 mM HEPES, pH 7.4 and containing 0.5 mM IBMX (Sigma #17018).
Low protein binding 384-well plates (Greiner #781280) are used to perform eleven 1 in 5 serial dilutions of test samples which are made in assay buffer. All sample dilutions are made in duplicate.
A frozen cryo-vial of cells expressing the receptor of interest is thawed rapidly in a water-bath, transferred to pre-warmed assay buffer and spun at 240× g for 5 minutes. Cells are re-suspended in assay buffer at a batch-dependent optimized concentration (e.g. hGCGR cells at 2×10^5 cells/ml, hGLP-1R and hGIPR cells at 1×10^5 cells /ml).
From the dilution plate, a 5 μL replica is stamped onto a black shallow-well u-bottom 384-well plate (Corning #3676). To this, 5 μL cell suspension is added and the plates incubated at room temperature for 30 minutes.
cAMP levels are measured using a commercially available cAMP dynamic 2 HTRF kit (Cisbio, Cat #62AM4PEJ), following the two step protocol as per manufacturer's recommendations. In brief; anti-cAMP cryptate (donor fluorophore) and cAMP-d2 (acceptor fluorophore) are made up separately by diluting each 1/20 in conjugate & lysis buffer provided in the kit. 5 μL anti-cAMP cryptate is added to all wells of the assay plate, and 5 μL cAMP-d2 is added to all wells except non-specific binding (NSB) wells, to which conjugate and lysis buffer are added. Plates are incubated at room temperature for one hour and then read on an Envision (Perkin Elmer) using excitation wavelength of 320 nm and emission wavelengths of 620 nm & 665 nm. EC50 values of the synthetic peptides determined in cAMP assays are then determined.

T2 sequence (P43220 24-463): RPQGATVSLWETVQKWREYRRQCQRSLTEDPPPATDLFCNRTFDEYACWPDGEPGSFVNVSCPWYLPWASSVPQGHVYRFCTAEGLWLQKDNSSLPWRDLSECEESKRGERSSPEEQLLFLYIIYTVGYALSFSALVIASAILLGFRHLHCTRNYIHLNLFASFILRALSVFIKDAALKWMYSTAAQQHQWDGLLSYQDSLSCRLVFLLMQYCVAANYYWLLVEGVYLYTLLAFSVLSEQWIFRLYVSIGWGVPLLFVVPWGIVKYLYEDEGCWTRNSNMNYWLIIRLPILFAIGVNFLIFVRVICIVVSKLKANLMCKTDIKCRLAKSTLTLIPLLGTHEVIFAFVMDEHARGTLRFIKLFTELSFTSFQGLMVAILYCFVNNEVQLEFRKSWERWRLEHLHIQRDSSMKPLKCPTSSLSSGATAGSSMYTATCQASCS
T3 sequence (P47871 26-477): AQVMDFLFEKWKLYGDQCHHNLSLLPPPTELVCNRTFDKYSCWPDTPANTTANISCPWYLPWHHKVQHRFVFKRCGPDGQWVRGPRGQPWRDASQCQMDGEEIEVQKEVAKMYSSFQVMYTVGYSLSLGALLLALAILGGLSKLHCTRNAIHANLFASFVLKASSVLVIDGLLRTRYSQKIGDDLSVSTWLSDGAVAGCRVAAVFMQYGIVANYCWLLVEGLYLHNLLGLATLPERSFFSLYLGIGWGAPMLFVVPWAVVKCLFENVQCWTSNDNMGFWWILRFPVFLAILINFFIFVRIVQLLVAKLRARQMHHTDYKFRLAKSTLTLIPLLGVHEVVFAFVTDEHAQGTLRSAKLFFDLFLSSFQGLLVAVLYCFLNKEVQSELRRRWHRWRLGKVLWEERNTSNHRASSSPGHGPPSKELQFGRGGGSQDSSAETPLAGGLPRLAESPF

As to `CC[C@H](C)[C@H](NC(=O)[C@H](Cc1ccccc1)NC(=O)[C@H](CCC(=O)O)NC(=O)[C@H](CCCCN)NC(=O)[C@H](C)NC(=O)[C@H](C)NC(=O)[C@H](CCC(N)=O)NC(=O)CNC(=O)[C@H](CCC(=O)O)NC(=O)[C@H](CC(C)C)NC(=O)[C@H](Cc1ccc(O)cc1)NC(=O)[C@H](CO)NC(=O)[C@H](CO)NC(=O)[C@@H](NC(=O)[C@H](CC(=O)O)NC(=O)[C@H](CO)NC(=O)[C@@H](NC(=O)[C@H](Cc1ccccc1)NC(=O)[C@@H](NC(=O)CNC(=O)[C@H](CCC(=O)O)NC(=O)C(C)(C)NC(=O)[C@@H](N)Cc1c[nH]cn1)[C@@H](C)O)[C@@H](C)O)C(C)C)C(=O)N[C@@H](C)C(=O)N[C@@](C)(Cc1ccccc1)C(=O)N[C@@H](CC(C)C)C(=O)N[C@H](C(=O)N[C@@H](CCCCN)C(=O)NCC(=O)N[C@@H](CCCNC(=N)N)C(N)=O)C(C)C` [SEQ ID NO: 14, H-(Aib)^2-EGT^5 FTSDV^10 SSYLE^15 GQAAK^20 EFIA-(α-MeF)^25 LVKGR^30], the results for the pEC50 in test [1], in test [2] and in test [3] were 6.77, 10.71 and 6.77, respectively.

In the case of `CC[C@H](C)[C@H](NC(=O)[C@H](Cc1ccccc1)NC(=O)[C@H](CCC(=O)O)NC(=O)[C@H](CCCCN)NC(=O)[C@H](C)NC(=O)[C@H](C)NC(=O)[C@H](CCC(N)=O)NC(=O)CNC(=O)[C@H](CCC(=O)O)NC(=O)[C@H](CC(C)C)NC(=O)[C@H](Cc1ccc(O)cc1)NC(=O)[C@H](CO)NC(=O)[C@H](CO)NC(=O)[C@@H](NC(=O)[C@H](CC(=O)O)NC(=O)[C@H](CO)NC(=O)[C@@H](NC(=O)[C@](C)(Cc1ccccc1)NC(=O)[C@@H](NC(=O)CNC(=O)[C@H](CCC(=O)O)NC(=O)C(C)(C)NC(=O)[C@@H](N)Cc1c[nH]cn1)[C@@H](C)O)[C@@H](C)O)C(C)C)C(=O)N[C@@H](C)C(=O)N[C@@H](Cc1c[nH]c2ccccc12)C(=O)N[C@@H](CC(C)C)C(=O)N[C@H](C(=O)N[C@@H](CCCCN)C(=O)NCC(=O)N[C@@H](CCCNC(=N)N)C(N)=O)C(C)C` [SEQ ID NO: 6, H-(Aib)^2-EGT^5-(α-MeF)^6-TSDV^10 SSYLE^15 GQAAK^20 EFIAW^25 LVKGR^30], the values for the pEC50 in test [1], in test [2] and in test [3] were 7.13, 10.59 and 6.82, respectively.

Take `CC[C@H](C)[C@H](NC(=O)[C@H](Cc1ccccc1)NC(=O)[C@H](CCC(=O)O)NC(=O)[C@H](CCCCN)NC(=O)[C@H](C)NC(=O)[C@H](C)NC(=O)[C@H](CCC(N)=O)NC(=O)CNC(=O)[C@H](CCC(=O)O)NC(=O)[C@H](CC(C)C)NC(=O)[C@](C)(Cc1ccccc1)NC(=O)[C@H](CO)NC(=O)[C@H](CO)NC(=O)[C@@H](NC(=O)[C@H](CC(=O)O)NC(=O)[C@H](CO)NC(=O)[C@@H](NC(=O)[C@H](Cc1ccccc1)NC(=O)[C@@H](NC(=O)CNC(=O)[C@H](CCC(=O)O)NC(=O)C(C)(C)NC(=O)[C@@H](N)Cc1c[nH]cn1)[C@@H](C)O)[C@@H](C)O)C(C)C)C(=O)N[C@@H](C)C(=O)N[C@@H](Cc1c[nH]c2ccccc12)C(=O)N[C@@H](CC(C)C)C(=O)N[C@H](C(=O)N[C@@H](CCCCN)C(=O)NCC(=O)N[C@@H](CCCNC(=N)N)C(N)=O)C(C)C` [SEQ ID NO: 9, H-(Aib)^2-EGT^5 FTSDV^10 SS-(α-MeF)^13-LE^15 GQAAK^20 EFIAW^25 LVKGR^30] (H-H[Aib]EGTFTSDVSS[αMeF]LEGQAAKEFIAWLVKGR-NH2): the pEC50 in test [1] is 6.85; in test [2], 10.47; in test [3], 6.85.

`CC[C@H](C)[C@H](NC(=O)[C@H](Cc1ccccc1)NC(=O)[C@H](CCC(=O)O)NC(=O)C(C)(C)NC(=O)[C@H](C)NC(=O)[C@H](C)NC(=O)[C@H](CCC(N)=O)NC(=O)CNC(=O)[C@H](CCC(=O)O)NC(=O)[C@H](CC(C)C)NC(=O)[C@H](Cc1ccc(O)cc1)NC(=O)[C@H](CO)NC(=O)[C@H](CO)NC(=O)[C@@H](NC(=O)[C@H](CC(=O)O)NC(=O)[C@H](CO)NC(=O)[C@@H](NC(=O)[C@H](Cc1ccccc1)NC(=O)[C@@H](NC(=O)CNC(=O)[C@H](CCC(=O)O)NC(=O)C(C)(C)NC(=O)[C@@H](N)Cc1c[nH]cn1)[C@@H](C)O)[C@@H](C)O)C(C)C)C(=O)N[C@@H](C)C(=O)N[C@@H](Cc1c[nH]c2ccccc12)C(=O)N[C@@H](CC(C)C)C(=O)N[C@H](C(=O)N[C@@H](CCCCN)C(=O)NCC(=O)N[C@@H](CCCNC(=N)N)C(N)=O)C(C)C` [SEQ ID NO: 21, H-(Aib)^2-EGT^5 FTSDV^10 SSYLE^15 GQAA-(Aib)^26 EFIAW^25 LVKGR^30]: the negative-log EC50 (pEC50) in test [1] was 7.12; in test [2], 10.70; in test [3], 7.12.

`CCCCCCCCCCCCCCCC(=O)NCCCC[C@H](NC(=O)[C@H](CCCNC(=N)N)NC(=O)CNC(=O)[C@H](CCCCN)NC(=O)[C@@H](NC(=O)[C@H](CC(C)C)NC(=O)[C@H](Cc1c[nH]c2ccccc12)NC(=O)[C@H](C)NC(=O)[C@@H](NC(=O)[C@H](Cc1ccccc1)NC(=O)[C@H](CCC(=O)O)NC(=O)[C@H](CCCCN)NC(=O)[C@H](C)NC(=O)[C@H](C)NC(=O)[C@H](CCC(N)=O)NC(=O)CNC(=O)[C@H](CCC(=O)O)NC(=O)[C@H](CC(C)C)NC(=O)[C@H](Cc1ccc(O)cc1)NC(=O)[C@H](CO)NC(=O)[C@H](CO)NC(=O)[C@@H](NC(=O)[C@H](CC(=O)O)NC(=O)[C@H](CO)NC(=O)[C@@H](NC(=O)[C@H](Cc1ccccc1)NC(=O)[C@@H](NC(=O)CNC(=O)[C@H](CCC(=O)O)NC(=O)C(C)(C)NC(=O)[C@@H](N)Cc1c[nH]cn1)[C@@H](C)O)[C@@H](C)O)C(C)C)[C@@H](C)CC)C(C)C)C(N)=O` [SEQ ID NO: 5, H-(Aib)^2-EGT^5 FTSDV^10 SSYLE^15 GQAAK^20 EFIAW^25 LVKGR^30-K(Ε-Palm), reference compound]: the pEC50 was 7.04 in test [1], 10.60 in test [2] and 7.04 in test [3].

On to `CC[C@H](C)[C@H](NC(=O)[C@](C)(Cc1ccccc1)NC(=O)[C@H](CCC(=O)O)NC(=O)[C@H](CCCCN)NC(=O)[C@H](C)NC(=O)[C@H](C)NC(=O)[C@H](CCC(N)=O)NC(=O)CNC(=O)[C@H](CCC(=O)O)NC(=O)[C@H](CC(C)C)NC(=O)[C@](C)(Cc1ccccc1)NC(=O)[C@H](CO)NC(=O)[C@H](CO)NC(=O)[C@@H](NC(=O)[C@H](CC(=O)O)NC(=O)[C@H](CO)NC(=O)[C@@H](NC(=O)[C@](C)(Cc1ccccc1)NC(=O)[C@H](CO)NC(=O)CNC(=O)[C@H](CCC(=O)O)NC(=O)C(C)(C)NC(=O)[C@@H](N)Cc1c[nH]cn1)[C@@H](C)O)C(C)C)C(=O)N[C@@H](C)C(=O)N[C@@](C)(Cc1ccccc1)C(=O)N[C@@H](CC(C)C)C(=O)N[C@H](C(=O)N[C@@](C)(CCCCN)C(=O)NCC(=O)NCC(N)=O)C(C)C` [SEQ ID NO: 45, H-(Aib)^2-EG-(S)^5-(α-MeF)^6-TSDV^10 SS-(α-MeF)^13-LE^15 GQAAK^20 E-(α-MeF)^22-IA-(α-MeF)^25 LV-(α-MeK)^28-G-(G)^30] (H-H[Aib]EGS[αMeF]TSDVSS[αMeF]LEGQAAKE[αMeF]IA[αMeF]LV[αMeK]GG-NH2), for which the negative-log EC50 (pEC50) in test [1] was 6.98; in test [2], 10.65; in test [3], 6.98.

Values taken from patent US20160318987A1 (MEDIMMUNE LIMITED, priority 2013, published 2016).
